# Results taken from patent US20200239530A1, “COMPOUNDS AND METHODS OF MODULATING PROTEIN DEGRADATION” (Vividion Therapeutics, Inc., priority 2017, published 2020).
# What was measured:
# Type in all cases: binding
# Q9NR09 = target: T1, Q9NR09 (Homo sapiens, UniProt Q9NR09); test: Competitive cysteine profiling, probe competition (Table 2B); settings: 100 uM
# T1 construct: endogenous in cells
# Excerpt: (§1) The following 96-well sample prep protocol was used for sample preparation.
# [1] = target: T2, cysteine residue illustrated in Table 1A or Table 2A (Homo sapiens, UniProt Q5VU92); test: Competitive cysteine profiling of cell lysate with desthiobiotin iodoacetamide probe (96-well sample prep); settings: UniProt Q5VU92
# T2 construct: Cells were resuspended in cold PBS on ice and sonicated with a probe sonicator to achieve lysis; endogenous in cells
# Procedure, shortened: (§2)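 Competitive profiling: compound and lysate (5 mg/ml protein) incubated 1 h at 25 °C before a 1 h, 25 °C desthiobiotin iodoacetamide probe step. Proteins were acetone-precipitated, reduced, alkylated and trypsinized; streptavidin-captured labelled peptides were eluted for MS analysis.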
# Q9NXR7 = Q9NXR7 (Homo sapiens, UniProt Q9NXR7); test: Competitive cysteine profiling, probe competition (Table 2B); design: endogenous in cells; settings: read-out: KB02_500 uM_percent_inhibition
# Excerpt: as §1
# Q96Q27 = target: T3, Q96Q27 (Homo sapiens, UniProt Q96Q27); test: as above; settings: read-out: KB05_100 uM_percent_inhibition
# T3 construct: endogenous in cells
# Excerpt: as §1
# [2] = target: T4, cysteine residue illustrated in Table 1A or Table 2A (Homo sapiens, UniProt P49754); test: Competitive cysteine profiling of cell lysate with desthiobiotin iodoacetamide probe (96-well sample prep); settings: UniProt P49754; KB05 100 uM
# T4 construct: Cells were resuspended in cold PBS on ice and sonicated with a probe sonicator to achieve lysis; endogenous in cells
# Procedure, shortened: as §2
# [3] = target: T5, cysteine residue illustrated in Table 1A or Table 2A (Homo sapiens, UniProt Q6ZT12); test: as above; settings: UniProt Q6ZT12; KB05 100 uM
# T5 construct: Cells were resuspended in cold PBS on ice and sonicated with a probe sonicator to achieve lysis; endogenous in cells
# Procedure, shortened: as §2
# [4] = target: T6, cysteine residue illustrated in Table 1A or Table 2A (Homo sapiens, UniProt P41002); test: as above; settings: UniProt P41002; 100 uM
# T6 construct: Cells were resuspended in cold PBS on ice and sonicated with a probe sonicator to achieve lysis; endogenous in cells
# Procedure, shortened: as §2
# Q99728 = Q99728 (Homo sapiens, UniProt Q99728); test: Competitive cysteine profiling, probe competition (Table 2B); design: endogenous in cells; settings: read-out: KB05_100 uM_percent_inhibition
# Excerpt: as §1
# [5] = target: T7, cysteine residue illustrated in Table 1A or Table 2A (Homo sapiens, UniProt Q13617); test: Competitive cysteine profiling of cell lysate with desthiobiotin iodoacetamide probe (96-well sample prep); settings: UniProt Q13617; 100 uM
# T7 construct: Cells were resuspended in cold PBS on ice and sonicated with a probe sonicator to achieve lysis; endogenous in cells
# Procedure, shortened: as §2
# [6] = target: T8, cysteine residue illustrated in Table 1A or Table 2A (Homo sapiens, UniProt Q6FIF0); test: as above; settings: UniProt Q6FIF0; KB03 100 uM
# T8 construct: Cells were resuspended in cold PBS on ice and sonicated with a probe sonicator to achieve lysis; endogenous in cells
# Procedure, shortened: as §2
# [7] = target: T9, cysteine residue illustrated in Table 1A or Table 2A (Homo sapiens, UniProt Q15386); test: as above; settings: UniProt Q15386; KB03 100 uM
# T9 construct: Cells were resuspended in cold PBS on ice and sonicated with a probe sonicator to achieve lysis; endogenous in cells
# Procedure, shortened: as §2
# [8] = target: T10, cysteine residue illustrated in Table 1A or Table 2A (Homo sapiens, UniProt Q58WW2); test: as above; settings: UniProt Q58WW2; 100 uM
# T10 construct: Cells were resuspended in cold PBS on ice and sonicated with a probe sonicator to achieve lysis; endogenous in cells
# Procedure, shortened: as §2
# [9] = target: T11, cysteine residue illustrated in Table 1A or Table 2A (Homo sapiens, UniProt O76080); test: as above; settings: UniProt O76080; KB03 100 uM
# T11 construct: Cells were resuspended in cold PBS on ice and sonicated with a probe sonicator to achieve lysis; endogenous in cells
# Procedure, shortened: as §2
# [10] = target: T12, cysteine residue illustrated in Table 1A or Table 2A (Homo sapiens, UniProt Q9UBI1); test: as above; settings: UniProt Q9UBI1; 500 uM
# T12 construct: Cells were resuspended in cold PBS on ice and sonicated with a probe sonicator to achieve lysis; endogenous in cells
# Procedure, shortened: as §2
structure (smiles),measurement,setting,value
COc1ccc2c(c1)CCCN2C(=O)CCl [KB02],KB02_100 uM_percent_inhibition,Q9NR09,24%
same,KB02_100 uM_percent_inhibition,[1]; 100 uM,25%
same,KB02_500 uM_percent_inhibition,[1]; 500 uM,29%
same,inhibition at 500 µM,Q9NXR7,50%
C=CC(=O)N(c1ccccc1)c1ccc(Br)cc1 [KB05],inhibition at 100 µM,Q96Q27,36%
same,KB05_100 uM_percent_inhibition,[2],10%
same,KB05_100 uM_percent_inhibition,[3],41%
same,KB05_100 uM_percent_inhibition,[4],49%
same,inhibition at 100 µM,Q99728,31%
O=C(CCl)Nc1cc(C(F)(F)F)cc(C(F)(F)F)c1 [KBO3],KB03_100 uM_percent_inhibition,[5],30%
same,KB03_100 uM_percent_inhibition,[6],8%
same,KB03_100 uM_percent_inhibition,[7],16%
same,KB03_100 uM_percent_inhibition,[8],67%
same,KB03_100 uM_percent_inhibition,[9],14%
same,KB03_500 uM_percent_inhibition,[10],29%
